Assay results from EP3936131A1, “COMPOUNDS FOR THE TREATMENT OF ZIKA” (Dompe' Farmaceutici S.P.A., priority 2020, dated 2022).

test system: ZIKV (HS-2015-BA-01); experiment: Plaque titration assay of supernatant from ZIKV-infected Vero CCL-81 cells treated with compound; type: cell-based, Zika Virus; conditions: 30, 10 and 3 microM (AEE-788 and Olcegepant: 10 and 3 microM); MOI 0.1; two treatments 24 h apart; compared to vehicle control; values only in Figures 1 to 8
Description: The above compounds selected by the CADD analysis were tested in a ZIKV Vero CCL-81 cells (kidney epithelial cells from African green monkey) assay. This assay is based on viral infection of Vero cells followed by visual monitoring of cytopathic effects of the virus.
In details, the above compounds were diluted to the final concentrations of 30 microM, 10 microM and 3 microM. The final volume required for treatment was 200 microliters per well, in a total of 12 wells.
For infection of the cells, ZIKV (HS-2015-BA-01), isolated from a viremic patient with symptomatic infection in Bahia State, Brazil, in 2015, was used. The complete genome of the virus is under access KX520666 in Genbank. Viral dilutions were prepared in Multiplicity of Infection (MOI) at 0.1 according to a standardized method.
In particular, 37,9 microl of virus (6x10^7 pfu/mL) was used or a total of 25.000 microl (25 ml) RPMI-0% FBS medium
100 microliters of the viral dilution (MOI 0,1) were added to each well and incubated at 5% of CO2 at T= 37°C for 1 hour for adsorption step, swift rocking every 15'.
After discarding the supernatant, 200 microliters of diluted compounds at the different concentrations described above, or vehicle were added for each compound and left in incubation at 5% of CO2 at T= 37°C for 24 hours.
After 24 hours of the first treatment the treatment was repeated a second time, with the same concentration of each compound, and at the same conditions (5% of CO2 at T= 37°C for […]).
After 24 hours, the supernatant was collected and used to perform MTT, LDH plaque titration assays, as described above.
Vero CCL-81 cells (kidney epithelial cells from African green monkey) were seeded in 24-well plates at a density of […].
Cells were maintained in RPMI 1640 medium (Cultilab) supplemented with 10% FBS (Cultilab), 2 mM L-glutamine (Gibco) and 100U/50µg penicillin/streptomycin (Sigma-Aldrich) for 24 h at 37°C in a 5% CO2 incubator.
Serial ten-fold dilutions of viral suspension in sterile dilution tubes were prepared (10-1 up to 10-4). To this aim, tubes were filled with 450 microl of medium 0% SFB and 50 microl of the sample added on the first tube. The same procedure was repeated to obtain serial dilutions by passing 50 microliters to the next dilution and successively for the other dilutions. 300 µl of each serial dilution were added into each of the two wells of 24-well plate, maintaining two wells without infection.
The inoculated plate was incubated at 37°C for 1 hour in a 5% CO2 incubator to allow virus adsorption, swift rocking every 15'. Once discard the cell supernatant from all wells, 1 ml of 1,60% semi-solid carboxymethyl cellulose (CMC) overlay medium with 2% FBS was added to each well to limit the virus dissemination.
The plate was left 4 days at 37°C in a 5% CO2 incubator. Then cell monolayer was incubated with 1 ml of the 10% formol for a minimum 18 hours at room temperature for fixation. Once removed and fixed the overlay medium, the cell monolayer was washed in running water, stained with 1 ml of the 0.04% Violet crystal for 1 hour at room temperature, and the count of viral plaques to calculate plaque-forming unit (PFU) was conducted.

Structure (SMILES) | virus replication (viral load expressed as log10 plaque forming equivalents)
CCOc1nc2cccc(C(=O)OC(C)OC(=O)OC3CCCCC3)c2n1Cc1ccc(-c2ccccc2-c2nnn[nH]2)cc1 (racemic) [Candesartan cilexetil, (±)-2-Ethoxy-1-[2'-(1 H-tetrazol-5-yl)biphenyl-4-ylmethyl]-1 H-benzimidazole-7-carboxylic acid 1-(cyclohexyloxycarbonyloxy) ethyl ester] | inhibition of virus replication
CCN1CCN(Cc2ccc(-c3cc4c(N[C@H](C)c5ccccc5)ncnc4[nH]3)cc2)CC1 [AEE-788, 6-[4-(4-Ethylpiperazin-1-ylmethyl)phenyl]-N-[1(R)-phenylethyl]-7H-pyrrolo[2,3-d]pyrimidin-4-amine] | inhibition of virus replication
Cn1c(=O)n(-c2ccc(C(C)(C)C#N)cc2)c2c3cc(-c4cnc5ccccc5c4)ccc3ncc21 [Dactolisib, 2-Methyl-2-[4-[3-methyl-2-oxo-8-(3-quinolinyl)-2,3-dihydro-1 H-imidazo[4,5-c]quinolin-1-yl]phenyl]propanenitrile] | inhibition of virus replication
NCCCC[C@H](NC(=O)[C@@H](Cc1cc(Br)c(O)c(Br)c1)NC(=O)N1CCC(N2Cc3ccccc3NC2=O)CC1)C(=O)N1CCN(c2ccncc2)CC1 [Olcegepant, N-[2-[5-Amino-1 (S)-[4-(4-pyridyl)piperazin-1-ylcarbonyl]pentylamino]-1(R)-(3,5-dibromo-4-hydroxybenzyl)-2-oxoethyl]-4-(2-oxo-1,2,3,4-tetrahydroquinazolin-3-yl)piperidine-1-carboxamide] | inhibition of virus replication
CC[C@@H]([C@H](C)O)n1ncn(-c2ccc(N3CCN(c4ccc(OC[C@@H]5CO[C@@](Cn6cncn6)(c6ccc(F)cc6F)C5)cc4)CC3)cc2)c1=O [Posaconazole, 4-[4-[4-[4-[5(R)-(2,4-Difluorophenyl)-5-(1,2,4-triazol-1-ylmethyl)tetrahydrofuran-3(R)-ylmethoxy]phenyl]piperazin-1-yl]phenyl]-2-[1(S)-ethyl-2(S)-hydroxypropyl]-3,4-dihydro-2H-1,2,4-triazol-3-one] | inhibition of virus replication
Cc1cc(/C=C/C#N)cc(C)c1Nc1ccnc(Nc2ccc(C#N)cc2)n1.Cl [Rilpivirine hydrochloride, 4-[4-[4-[(E)-2-Cyanovinyl]-2,6-dimethylphenylamino]pyrimidin-2-ylamino]benzonitrile hydrochloride] | inhibition of virus replication
